Test results as given in patent publication US20060165641A1, “Cosmetic compositions containing combinations of hydroxamate derivatives and antioxidants in a liposomal delivery system” (priority 2005, published 2006).
pIC50: −log10 of the molar value. Where “and” joins values, the source holds several entries; their conditions need not be identical. Equal values may be shown once. Entries after “also recorded” stand apart in the source; their conditions may differ. Read-outs that look alike come from different tables or passages of the source.

Columns and labels:
[1] = tested on: AP-1 transcription factor; settings: keratinocyte cell line HaCaT; very low levels; cited from earlier work
[2] = target: MMP-9 (also known as gelatinase) (Homo sapiens, UniProt P14780); assay: MMP inhibition, fluorogenic peptide assay; settings: for MMP-9 inhibitory activity (in words): fluorogenic peptide assay
Protocol: In this system, the substrate is a fluorogenic peptide which, when cleaved by the MMP, undergoes an increase in fluorescence. The reaction is followed by monitoring the increase in the fluorescence of the reaction mixture for 2 hours. The rate of fluorescence increase is a measure of the reaction rate. The assay is performed in microtiter plates using triplicate wells per condition. The test sample contains specific MMP and the putative MMP inhibitor at several concentrations and the mean rate of the reaction at each of these conditions is compared to the reaction rate in the absence of inhibitor. The concentration of the test sample that inhibits the reaction rate (i.e., MMP inhibition) by 50% is defined as the “50% Inhibitory Concentration” or IC50.

[3] = tested on: normal human keratinocytes; assay: UVB-induced TNF-α production by keratinocytes (ELISA, normalized to MTT viability); settings: UVB 35 mJ/cm2, 24 hrs; low concentrations of NDGA
[4] = UV-induced lipid peroxidation of lecithin liposomes (malonaldehyde); settings: relative to EGCG taken as 100%
Protocol: The ability of NDGA to prevent UV-induced lipid peroxidation was measured in comparison to other antioxidant industry standards such as vitamin E, vitamin C and green tea polyphenols. The assay was performed by irradiating a suspension of lecithin liposomes with UV light for 4 hours, in the absence or in the presence of the different compounds. Malonaldehyde levels (a breakdown product of oxidized lipids) were measured in aliquots of the reaction mixture at different times. The rate of lipid oxidation was calculated from the increase in malonaldehyde content. Relative potency was calculated by taking epigallocatechin gallate (EGCG) as 100%. The antioxidant used in the comparisons are listed in the left column. The middle column lists the effective concentration at which the compound is 50% effective (EC 50) for inhibition of lipid peroxidation, while the right column lists the relative potency of the samples, as compared to polyphenol of tea, which is taken as 100.

MMP 13 [5] = settings: primary human chondrocytes; cited from earlier work
[6] = Hydroxyl radical scavenging (Fenton reaction, terephthalic acid); settings: compared with green tea polyphenols, glutathione, vitamin E
Protocol: Hydroxyl radical scavenging of NDGA was measured by generation of .OH via the Fenton reaction with terephthalic acid as oxidizable substrate. Hydroxylation of terephthalic acid results in production of a fluorescent product. The rate of the reaction is determined by measuring the time course of fluorescence increase. If a test sample is a hydroxyl radical scavenger, it will decrease the reaction rate.
FIG. 6 is a table displaying hydroxyl radical scavenging activity of NDGA in comparison with green tea polyphenols (GTP) and Vitamin E, indicated in the left column.

MMP 13 [7] = settings: human chondrosarcoma cell line SW1353; cited from earlier work
[8] = Singlet oxygen scavenging test (Rose Bengal / iodide); settings: % inhibition of control; compared with Coenzyme Q10 and green tea polyphenols
Protocol: Singlet forms of molecular oxygen are excited electronic configurations that are more reactive than the spin-restricted ground state. These forms can be generated in tissues by a variety of mechanisms. Particularly relevant to the skin is light-induced production of singlet oxygen. The singlet oxygen scavenging test is performed by irradiation of a reaction mixture that contains a photosensitizer dye (Rose Bengal) and iodide ions. The excited dye transfers its energy to ground state oxygen to generate singlet oxygen which in turn oxidizes iodide to I3^−. Production of I3^− is followed spectrophotometrically at 355 nm. If a test sample is a singlet oxygen quencher, it will decrease the rate of I3^− production.

[9] = tested on: normal human keratinocytes; assay: UVB-induced PGE2 production by keratinocytes (ELISA, normalized to MTT viability); format: cell-based; settings: UVB 30 mJ/cm2; SHA at as low as 5 uM
Protocol: The anti-inflammatory effect of SHA was measured by pretreating normal human keratinocytes with different concentrations of SHA for 24 hrs. The cells were UVB irradiated with a single sub-lethal dose of 30 mJ/cm2 using a Phillips TL20W12 tube. Cells were further incubated for 24 hrs with SHA and prostaglandin E2 (PGE2) levels in the supernatant media samples were analyzed by ELISA. 20 uM indomethacin was included as a positive control as an anti-inflammatory agent. The cell viability was also tested at the end of the 24 hr incubation period using the MTT metabolism method. […] The data was expressed as PGE2 production normalized to cell viability. PGE2, or prostaglandin E2, is an inflammatory mediator produced during inflammatory reactions in the skin. Any agents that inhibit the production of PGE2 will therefore have a beneficial effect of preventing inflammation (in other words, an anti-inflammatory effect). The top three bars display the effect of SHA at various concentrations on the UVB irradiated cells, the 4th bar the effect of indomethscin, the 5th bar the effect of UVB radiation on untreated cells, while the bottom bar is a control (untreated cells, not UVB irradiated).

[10] = tested on: normal human keratinocytes; assay: Cornified envelope formation / differentiation of keratinocytes; format: cell-based; settings: 0.15 mM calcium medium; relative to high calcium (1 mM) cultures
Protocol: To measure the induction of differentiation of keratinocytes, cultures of normal human keratinocytes were incubated with medium containing 0.15 mM calcium (low calcium prevents CE formation and keeps cells in growth mode). The cells were treated with different amounts of SHA and the amount of the highly cross-linked, detergent insoluble CE formation was quantified after dissolving the cells in 2% SDS/20 mM Dithiothrietol (DTT). The insoluble CE was centrifuged, resuspended in water and the optical density of the turbid solution was measured at 400 nm. The increase in turbidity indicates increased CE formation. […] The results, presented in the right column, are expressed relative to high calcium (1 mM) containing cultures.

fibroblasts [11] = assay: Integrin expression of fibroblasts (ELISA); format: cell-based; settings: 48 hrs
Protocol: (§1) In addition, SHA stimulates collagen and integrin synthesis of keratinocytes and fibroblasts. This was measured by treating keratinocyte or fibroblast cultures with SHA for 48 hrs and testing the medium for collagen and integrin secretion using appropriate antibodies using commercially available ELISA kits. The ELISA measures the secretion of collagen-1 and three different types of integrins, integrin alpha-2, -3 and -5. […] The data, presented in the right column, are expressed as a % stimulation of collagen secretion as compared to the control. […] Stimulation of collagen synthesis would provide more integrity to the dermis and would benefit in reducing wrinkles and will provide anti-aging benefits.
(§2) SHA can also stimulate integrin expression of fibroblasts and keratinocytes. […] In each table, that left column lists the various concentrations of SHA used in the tests, while the three right columns present integrin expression data, for different varieties of integrin, expressed as a % stimulation with respect to the control (0 mM SHA). […] Integrin is a vital component of the cell extracellular matrix that helps in cell adhesion and attachment. The increased amount of integrin helps cells to attach and grow, making skin firmer and more cellular. […]

mushroom tyrosinase = assay: Inhibition of mushroom tyrosinase (tyrosine to DOPAchrome, OD475); format: biochemical
Protocol: The skin lightening effect of SHA was determined by measuring the inhibition of tyrosinase since tyrosinase is the enzyme that catalyzes the rate limiting steps in melanin synthesis. Inhibition of mushroom tyrosinase was assayed by measuring conversion of tyrosine to DOPAchrome (OD475) in the presence of varying concentrations of test sample. […] Thirty nanomolar SHA inhibited over 30% of the activity. The IC50 is 60 nM.

keratinocytes = assay: Integrin expression of keratinocytes (ELISA); format: cell-based; settings: 48 hrs
Protocol: as §1, §2

fibroblasts [12] = assay: Fibroblast collagen-1 secretion (ELISA); format: cell-based; settings: 0.1 mM SHA, 48 hrs
Protocol: as §1

Chain of MMP-9 (also known as gelatinase) (P14780 94-707, species assumed): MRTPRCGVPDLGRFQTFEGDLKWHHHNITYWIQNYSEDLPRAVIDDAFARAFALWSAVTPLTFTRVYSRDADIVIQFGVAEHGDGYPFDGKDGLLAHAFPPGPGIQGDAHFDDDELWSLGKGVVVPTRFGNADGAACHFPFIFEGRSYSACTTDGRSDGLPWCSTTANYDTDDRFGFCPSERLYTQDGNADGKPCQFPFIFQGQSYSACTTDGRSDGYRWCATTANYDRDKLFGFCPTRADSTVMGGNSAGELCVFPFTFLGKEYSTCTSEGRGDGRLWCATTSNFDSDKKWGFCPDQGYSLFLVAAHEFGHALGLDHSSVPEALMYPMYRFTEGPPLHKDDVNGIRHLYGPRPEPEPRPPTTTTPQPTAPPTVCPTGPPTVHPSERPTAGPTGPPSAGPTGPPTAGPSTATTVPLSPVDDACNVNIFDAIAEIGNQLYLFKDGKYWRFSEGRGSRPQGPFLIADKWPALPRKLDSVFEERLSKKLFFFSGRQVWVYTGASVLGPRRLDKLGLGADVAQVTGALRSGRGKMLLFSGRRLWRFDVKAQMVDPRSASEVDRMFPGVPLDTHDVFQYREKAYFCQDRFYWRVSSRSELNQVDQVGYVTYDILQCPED

SMILES | inhibition of AP-1 activation [1] | pIC50 ([2]; IC50 MMP-9 inhibition, fluorogenic peptide, 2 hours) | MMP-9 inhibitory activity (in words) [2] | TNF alpha production normalized to cell viability [3] | relative potency, inhibition of lipid peroxidation [4] | inhibition of TNF-α induced MMP 13 mRNA and protein induction (MMP 13 [5]) | hydroxyl radical scavenging activity [6] | inhibition of TNF-α induced MMP 13 mRNA and protein induction (MMP 13 [7]) | singlet oxygen scavenging activity [8] | PGE2 production normalized to cell viability (anti-inflammatory effect) [9] | cornified envelope formation (terminal differentiation) [10] | integrin expression (alpha-2, -3, -5) vs control (fibroblasts [11]) | pIC50 (mushroom tyrosinase) | inhibition of tyrosinase activity (mushroom tyrosinase; Thirty nanomolar SHA) | integrin expression (alpha-2, -3, -5) vs control (keratinocytes) | stimulation of collagen secretion compared to control (fibroblasts [12])
CC(Cc1ccc(O)c(O)c1)C(C)Cc1ccc(O)c(O)c1 (stereo not drawn) [NDGA, nordihydroguaiaretic acid] | at very low levels inhibits AP-1 activation | ~3.64 and ~4.00 | very high MMP-9 inhibitory activity | effectively blocked UVB-induced inflammation in keratinocytes; also recorded: much more effective than dexamethasone or green tea polyphenols | twice as potent as the next most effective antioxidant (EGCG); also recorded: two orders of magnitude more potent than the vitamin E varieties | inhibits TNF-α induced MMP 13 mRNA and protein induction | slightly more effective than green tea polyphenols and far more potent than glutathione or vitamin E | inhibits TNF-α induced MMP 13 mRNA and protein induction | very powerful singlet oxygen scavenger, equivalent to green tea polyphenols and better than coenzyme Q10 | – | – | – | – | – | – | –
O=C(NO)c1ccccc1O [SHA, Salicylhydroxamate] | – | – | excellent and potent inhibitors of matrix metalloproteases | – | – | – | – | – | – | potent anti-inflammatory effects | induces terminal differentiation of keratinocytes, increases the formation of CE | increasing the integrin expression of keratinocytes and fibroblasts | 7.22 | over 30% | increasing the integrin expression of keratinocytes | significantly stimulated the collagen synthesis of fibroblasts
NC(Cc1c[nH]c2ccccc12)C(=O)NO (stereo not drawn) [tryptophan hydroxamate] | – | – | excellent and potent inhibitors of matrix metalloproteases | – | – | – | – | – | – | – | – | – | – | – | – | –
